# System: A/Wisconsin/67/2005-p1
# Assay: microbe, parasite or virus in culture
# Format: cell-based, influenza A virus (H3N2)
# Details: Influenza A virus, MDCK, 72 h, read-out: Sensitivity to Compound 1 (EC50)
compound,measurement,value
O=C(O)[C@H]1C2CCC(CC2)[C@@H]1Nc1nc(-c2c[nH]c3ncc(F)cc23)ncc1F [Compound 1],EC50,2 nM
